Results taken from patent US5093045A, “Biologically active lipids binding membrane receptors” (priority 1990, dated 1992).
Where “and” joins values, the source holds several entries; their conditions need not be identical. Equal values may be shown once.

How the values were obtained:
[1] = test system: phorboid receptor (PDBu receptor) of murine brain membranous fraction (BMF); test: PDBu binding inhibiting activity (PBIA): inhibition of 3H-PDBu binding to murine brain membranous fraction; design: species or system mouse
Description: Pooled murine brains from approximately 2 month old mice, NFS strain, were minced with scissors, suspended in 1 mM triethanolamine-HCl, pH 7.4, and disrupted with a polytron P-10 (Brinkman). This and all subsequent steps were performed at 4° C. The homogenate was centrifuged for 10 minutes at 1700xg; the supernate was removed and centrifuged for 60 minutes at 105,000xg. The resulting pellet was suspended in one-fourth of the initial volume of PBS. The suspension was aliquoted into a small volume and stored at -70° C.
The binding of ^3 H-PDBu to BMF or soluble receptors was performed in duplicate in 12×75mm disposable glass tubes (Kimax) both in the absence and presence of 20μg/ml unlabeled PDBu; the binding mixture contained 5ng of ^3 H-PDBu (4×10^4 cpm), 0.2% final concentration of DMSO and BMF (50μg protein) or soluble receptors in a total volume of 0.25 ml binding buffer (BB) consisting of Dulbecco's […] (DMEM) containing bovine serum albumin (BSA lmg/ml) and N,N,-bis-(2-hydroxyethyl)-2-amino-ethane sulfonic acid (BES, 5mM), adjusted to pH 6.8. After incubation for 30 minutes at 23° C. the tubes were chilled, 0.5 ml cold 4% calf serum (Colorado Serum Co., Denver, CO) and 0.7 ml cold polyethylene glycol (PEG 6,000) in 1 mM Tris-HCl, pH 7.4 was added to each tube, the contents vortexed, the tubes allowed to stand for 15 min at 4° C., and centrifuged for 10 min at 1500xg at 4° C. The supernatant solution was carefully aspirated off, the pellet suspended in 2.5 ml of cold 10% PEG in 0.1 M Tris-HCl, pH 7.4, containing 0.5% SDS and 1 mM EDTA). The mixture was transferred to counting vials and 10 ml of Aquassure (NEN) was added to each vial. The vials were vigorously shaken and radioactivity determined using a Beckman beta counter.
The loss of the ability of ^3 H-PDBu to bind to receptors in the presence of ligand was used as the measure of inhibiting activity. PDBu binding inhibition assays were performed as described above, except the test materials were added to the reaction mixture and binding measured as described above.
The PBIA of ligand was equated with that of PDBu by the use of the term ng equivalent calculated from a plot of [^3 H]PDBu bound versus the log molar concentration for several biologically active phorbol esters (2). The curve corresponding to PDBu inhibition of PDBu binding was used by reading the molar concentration corresponding to the percent of control binding of ^3 H]PDBu in the presence of ligand to obtain the units ng PDBu equivalent of ligand.

[2] = test system: arachidonic acid cascade in mink lung cells; test: Stimulation of arachidonic acid cascade: release of radioactivity from cells prelabeled with arachidonic acid; type: cell-based; conditions: cells previously labeled with radioactive arachidonic acid
Description: The release of radioactivity into the medium from cells previously labeled with radioactive arachidonic was used as a measure of activation of eicosanoids pathway. […] PBIL from all sources inhibited PDBu-receptor interaction.

| Compound | Inhibition (%) of binding of PDBu to its receptor ([1]; concentration 0.4 nM) [%] | Inhibition (%) of binding of PDBu to its receptor ([1]; concentration 0.8 nM) [%] | further results |
| --- | --- | --- | --- |
| CCCCCC/C=C\CCCCCCCC(=O)OCC(O)CO (centres unmarked) [1-Monopalmitolein] | 36 | 82 | Competition with phorbol dibutyrate for its receptor (qualitative) [1]: compete with phorbol dibutyrate for its receptor; Stimulation of arachidonic acid cascade (release of radioactivity into the medium) [2]: stimulate the arachidonic acid cascade |
| CCCCC/C=C\C/C=C\CCCCCCCC(=O)OC[C@@H](O)CO [1-Monolinolein] | 82 | 94 | Competition with phorbol dibutyrate for its receptor (qualitative) [1]: compete with phorbol dibutyrate for its receptor; Inhibition (%) of binding of PDBu to its receptor ([1]; concentration 0.2 nM): 39%; Stimulation of arachidonic acid cascade (release of radioactivity into the medium) ([2]; listed as 1-monolinolein): stimulate the arachidonic acid cascade; Stimulation of arachidonic acid cascade (release of radioactivity into the medium) ([2]; listed as monolinolein): activated the arachidonic acid cascade |
| CCCCCCCC/C=C\CCCCCCCC(=O)OCC(O)COC(=O)CCCCCCC/C=C\CCCCCCCC [1,3-Diolein] | – | 11 | – |
| CCCCC/C=C\C/C=C\C/C=C\C/C=C\CCCC(=O)OCC(O)CO (centres unmarked) [1-Monoarachidonin] | 91 | 95 | Competition with phorbol dibutyrate for its receptor (qualitative) [1]: compete with phorbol dibutyrate for its receptor; Inhibition (%) of binding of PDBu to its receptor ([1]; concentration 0.2 nM): 41%; Stimulation of arachidonic acid cascade (release of radioactivity into the medium) [2]: stimulate the arachidonic acid cascade |
| CCCCC/C=C\C/C=C\CCCCCCCC(=O)OCC(O)COC(=O)CCCCCCC/C=C\C/C=C\CCCCC [1,3-Dilinolein] | – | 15 | – |
| CCCCCCCCCCCCCCCC(=O)OCC(COC(=O)CCCCCCCCCCCCCCC)OC(=O)CCCCCCCCCCCCCCC [Tripalmitin] | -11 | -8 | – |
| CCCCCCCCCCCCCC(=O)OCC(O)COC(=O)CCCCCCCCCCCCC [1,3-Dimyritin] | 1 | – | – |
| CCCCCCCCCCCCCCCC(=O)OCC(O)CO (centres unmarked) [1-Monopalmitin] | – | – | Inhibition (%) of binding of PDBu to its receptor ([1]; concentration 0.8 nM, 0.0008 µM): -6% and -15% |
| CCCCCCCC/C=C\CCCCCCCC(=O)OCC(O)CO (centres unmarked) [1-Monoolein] | 21 | 63 | – |
| CCCCCCCCCCCCCCCC(=O)OCC(O)COC(=O)CCCCCCCCCCCCCCC [1,3-Dipalmitin] | – | -12 | – |
| CCCCCCCC/C=C\CCCCCCCC(=O)OCC(CO)OC(=O)CCCCCCC/C=C\CCCCCCCC (centres unmarked) [1,2-Diolein] | – | 20 | – |
| OCC(O)CO [Glycerol] | 0 | – | – |
| CC/C=C\C/C=C\C/C=C\CCCCCCCC(=O)OCC(O)CO (centres unmarked) [1-Monolinolenin] | 74 | 94 | Inhibition (%) of binding of PDBu to its receptor ([1]; concentration 0.2 nM): 27% |
| CCCCCCCCCCCCCC(=O)OCC(COC(=O)CCCCCCCCCCCCC)OC(=O)CCCCCCCCCCCCC [Trimystrin] | 15 | – | – |
| CCCCCCCCCCCC(=O)OCC(COC(=O)CCCCCCCCCCC)OC(=O)CCCCCCCCCCC [Trilaurin] | 11 | – | – |
| CCCCC/C=C\C/C=C\CCCCCCCC(=O)OCC(COC(=O)CCCCCCC/C=C\C/C=C\CCCCC)OC(=O)CCCCCCC/C=C\C/C=C\CCCCC [Trilinolein] | – | -1 | – |
| CCCCC/C=C\C/C=C\CCCCCCCC(=O)O [Linoleic acid-Na] | 10 | 15 | – |
| CCCCCCCCCCCCCC(=O)OCC(O)CO (centres unmarked) [1-Monomyristin] | 0 | – | – |
